US7138361B2, “Herbicidal heterocycles” (E. I. du Pont de Nemours and Company, priority 2000, dated 2006)

What was measured:
Assay type in all cases: in vivo
[1] = system: duck salad (Heteranthera limosa); experiment: Test B flooded paddy test; conditions: Rate 1000 g/ha, scale of 0 to 100 where 0 is no effect and 100 is complete control, visually evaluated after 13 to 15 days
Summary of the method: (§1)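 Rice, smallflower flatsedge, duck salad and barnyardgrass grown to 2-leaf stage in flooded paddy and treated with test chemicals. Plants kept in greenhouse 13 to 15 days, then visually rated against controls. Scale 0 (no effect) to 100 (complete control).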

rice (Oryza saliva) = experiment: Test B flooded paddy test; conditions: Rate 1000 g/ha, scale of 0 to 100 where 0 is no effect and 100 is complete control, visually evaluated after 13 to 15 days
Summary of the method: as §1

[2] = system: barnyardgrass (Echinochloa crus-galli); experiment: Test B flooded paddy test; conditions: Rate 1000 g/ha, scale of 0 to 100 where 0 is no effect and 100 is complete control, visually evaluated after 13 to 15 days
Summary of the method: as §1

[3] = system: smallflower flatsedge (Cyperus difformis); experiment: Test B flooded paddy test; conditions: Rate 1000 g/ha, scale of 0 to 100 where 0 is no effect and 100 is complete control, visually evaluated after 13 to 15 days
Summary of the method: as §1

[4] = system: lambsquarters (Chenopodium album); experiment: Test B postemergence; conditions: 13 to 15 days
Summary of the method: (§2)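 Preemergence: seeds planted and treated with test chemicals in non-phytotoxic solvent with surfactant; postemergence on plants 2–18 cm (1- to 4-leaf stage). Kept in greenhouse 13–15 days, then visually rated against controls on a 0 (no effect) to 100 (complete control) scale.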

[5] = system: blackgrass (Alopecurus myosuroides); experiment: Test B postemergence; conditions: 13 to 15 days
Summary of the method: as §2

[6] = system: Surinam grass (Brachiaria decumbens); experiment: Test B postemergence; conditions: 13 to 15 days
Summary of the method: as §2

[7] = system: giant foxtail (Setaria faberii); experiment: Test B postemergence; conditions: 13 to 15 days
Summary of the method: as §2

[8] = system: cocklebur (Xanthium strumarium); experiment: Test B postemergence; conditions: 13 to 15 days
Summary of the method: as §2

[9] = system: velvetleaf (Abutilon theophrasti); experiment: Test B postemergence; conditions: 13 to 15 days
Summary of the method: as §2

[10] = system: pigweed (Amaranthus retroflexus); experiment: Test B postemergence; conditions: 13 to 15 days
Summary of the method: as §2

[11] = system: crabgrass (Digitaria sanguinalis); experiment: Test B postemergence; conditions: 13 to 15 days
Summary of the method: as §2

[12] = system: morning glory (Ipomoea hederacea); experiment: Test B postemergence; conditions: 13 to 15 days
Summary of the method: as §2

[13] = system: lambsquarters (Chenopodium album); experiment: Test C postemergence
Summary of the method: (§3)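 Herbicidal effect is a visual 0–100 score (100 = complete control) assigned versus untreated plants, 12 to 14 days after spraying in the greenhouse. Test compounds were applied in a non-phytotoxic, surfactant-containing solvent.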

kochia (Kochia scoparia) = experiment: Test C postemergence
Summary of the method: as §3

[14] = system: pigweed (Amaranthus retroflexus); experiment: Test C postemergence
Summary of the method: as §3

Sunflower = experiment: Test C preemergence; conditions: scale 0 to 100
[15] = Rate 125 g/ha, scale 0 (no effect) to 100 (complete control)
[16] = Rate 500 g/ha, scale 0 to 100, 0 is no effect, 100 is complete control
[17] = Rate 250 g/ha, scale 0 to 100 (0 no effect, 100 complete control)
[18] = Rate 500 g/ha, scale 0 to 100 (0 no effect, 100 complete control)
[19] = Rate 125 g/ha, scale 0 to 100, 0 no effect, 100 complete control

| SMILES | Plant response rating, Lambsquarters [4, 15] | Plant response rating, Lambsquarters [4, 16] | Plant response rating, Blackgrass [5, 15] | Plant response rating, Blackgrass [5, 16] | Plant response rating, Surinam grass [6, 15] | Plant response rating, Surinam grass [6, 16] | Plant response rating, Foxtail, Giant [7, 15] | Plant response rating, Foxtail, Giant [7, 16] | Plant response rating, Cocklebur [8, 15] | Plant response rating, Cocklebur [8, 16] | Plant response rating, Velvetleaf [9, 15] | Plant response rating, Velvetleaf [9, 16] | Plant response rating, Pigweed [10, 15] | Plant response rating, Pigweed [10, 16] | Plant response rating, Crabgrass [11, 15] | Plant response rating, Crabgrass [11, 16] | Plant response rating, Morningglory [12, 15] | Plant response rating, Morningglory [12, 16] | Plant response rating, Lambsquarters [13, 17] | Plant response rating, Kochia (kochia (Kochia scoparia); [17]) | further results |
| --- | --- | --- | --- | --- | --- | --- | --- | --- | --- | --- | --- | --- | --- | --- | --- | --- | --- | --- | --- | --- | --- |
| CC(C)(C)c1ccn(C2CCN(c3ccc(Cl)c(Br)c3)C2=O)n1 (centres unmarked) [Compound 56] | 80 | 90 | 0 | 0 | 0 | 0 | 0 | 0 | 0 | 0 | 0 | 0 | 90 | 90 | 0 | 0 | 0 | 10 |  |  | Plant response rating, Ducksalad [1]: 20; Plant response rating, Rice (rice (Oryza saliva)): 0; Plant response rating, Barnyardgrass [2]: 80; Plant response rating, Flatsedge [3]: 90 |
| O=C1C(n2ccc(C3CCCCC3)n2)OCN1c1cccc(C(F)(F)F)c1 (centres unmarked) [Compound 51] | 80 | 90 | 0 | 0 | 0 | 0 | 0 | 0 | 0 | 0 | 0 | 0 | 0 | 80 | 0 | 20 | 0 | 0 |  |  | Plant response rating, Ducksalad [1]: 100; Plant response rating, Rice (rice (Oryza saliva)): 30; Plant response rating, Barnyardgrass [2]: 100; Plant response rating, Flatsedge [3]: 100 |
| O=C1C(n2ccc(C3CC3)n2)CCN1c1cccc(C(F)(F)F)c1 (centres unmarked) [Compound 8] | 30 | 50 | 0 | 0 | 0 | 0 | 0 | 0 | 0 | 10 | 0 | 0 | 0 | 10 | 0 | 0 | 0 | 0 |  |  | Plant response rating, Ducksalad [1]: 80; Plant response rating, Rice (rice (Oryza saliva)): 90; Plant response rating, Barnyardgrass [2]: 100; Plant response rating, Flatsedge [3]: 100 |
| CCCOc1cc(N2CCC(n3ccc(C(C)(C)C)n3)C2=O)ccc1C (centres unmarked) [Compound 107] |  | 100 | 0 | 0 | 0 | 0 | 0 | 0 | 70 | 100 |  | 70 |  | 90 | 0 | 0 |  | 70 | 100 | 80 | Plant response rating, Lambsquarters ([13]; Rate 62 g/ha, scale 0 to 100): 50; Plant response rating, Lambsquarters [13, 18]: 100; Plant response rating, Kochia (kochia (Kochia scoparia); Rate 62 g/ha, scale 0 to 100): 70; Plant response rating, Kochia (kochia (Kochia scoparia); [18]): 85; Plant response rating, Pigweed ([14]; Rate 62 g/ha, scale 0 to 100): 50; Plant response rating, Pigweed [14, 17]: 55; Plant response rating, Pigweed [14, 18]: 90; Plant response rating, Sunflower (Sunflower; Rate 62 g/ha): 0 |
| O=C1C(n2ccc(C3CCC3)n2)SCN1c1cccc(C(F)(F)F)c1 (centres unmarked) [Compound 37] | 0 | 90 | 0 | 0 | 0 | 0 | 60 | 80 | 10 | 30 | 0 | 0 | 20 | 90 | 0 | 100 | 20 | 40 | 50 | 70 | Plant response rating, Lambsquarters ([13]; Rate 31 g/ha, scale 0 to 100): 20; Plant response rating, Lambsquarters [13, 19]: 20; Plant response rating, Kochia (kochia (Kochia scoparia); Rate 31 g/ha, scale 0 to 100): 0; Plant response rating, Kochia (kochia (Kochia scoparia); [19]): 20; Plant response rating, Pigweed ([14]; Rate 31 g/ha, scale 0 to 100): 0; Plant response rating, Pigweed [14, 19]: 0; Plant response rating, Pigweed [14, 17]: 0; Plant response rating, Sunflower (Sunflower; Rate 31 g/ha): 0 |
| COc1cc(N2CCC(n3ccc(C(C)C)n3)C2=O)ccc1C (centres unmarked) [Compound 85] | 30 | 90 | 0 | 20 | 0 | 0 | 0 | 20 | 40 | 100 | 20 | 50 | 60 | 90 | 20 | 50 | 0 | 80 | 100 | 80 | Plant response rating, Lambsquarters ([13]; Rate 62 g/ha, scale 0 to 100): 70; Plant response rating, Lambsquarters [13, 19]: 90; Plant response rating, Lambsquarters [13, 18]: 100; Plant response rating, Kochia (kochia (Kochia scoparia); Rate 62 g/ha, scale 0 to 100): 40; Plant response rating, Kochia (kochia (Kochia scoparia); [19]): 60; Plant response rating, Kochia (kochia (Kochia scoparia); [18]): 90; Plant response rating, Pigweed ([14]; Rate 62 g/ha, scale 0 to 100): 60; Plant response rating, Pigweed [14, 19]: 70; Plant response rating, Pigweed [14, 17]: 90; Plant response rating, Pigweed [14, 18]: 100; Plant response rating, Sunflower (Sunflower; Rate 62 g/ha): 40 |
| CCC(CC)c1ccn(C2CCN(c3ccc(C)c(OC)c3)C2=O)n1 (centres unmarked) [Compound 81] | 20 | 90 | 0 | 0 | 0 | 10 | 0 | 0 | 90 | 100 | 80 | 90 | 70 | 90 | 0 | 30 | 80 | 100 | 80 | 70 | Plant response rating, Lambsquarters ([13]; Rate 31 g/ha, scale 0 to 100): 0; Plant response rating, Lambsquarters ([13]; Rate 62 g/ha, scale 0 to 100): 60; Plant response rating, Kochia (kochia (Kochia scoparia); Rate 31 g/ha, scale 0 to 100): 40; Plant response rating, Kochia (kochia (Kochia scoparia); Rate 62 g/ha, scale 0 to 100): 50; Plant response rating, Kochia (kochia (Kochia scoparia); [19]): 50; Plant response rating, Pigweed ([14]; Rate 31 g/ha, scale 0 to 100): 0; Plant response rating, Pigweed ([14]; Rate 62 g/ha, scale 0 to 100): 0; Plant response rating, Pigweed [14, 19]: 0; Plant response rating, Pigweed [14, 17]: 60; Plant response rating, Sunflower (Sunflower; Rate 31 g/ha): 0 |
